Source: patent US20160262443A1, “USE OF A COMPOSITION CONTAINING 1,3-PROPANEDIOL AS E-LIQUID” (priority 2014, published 2016)
Read-outs that look alike come from different tables or passages of the source.

Key:
[1] = Kinematic viscosity measurement of e-liquid products (Example 6); assay type: physicochemical
Method: Then, the kinematic viscosity of products A, B, C and D is measured.

[2] = assay type: physicochemical; settings: for DTA Transformation temperature (exothermic peak, reaction and/or decomposition) / DTA Vaporization temperature (endothermic peak): 25 to 350° C.
Method: Thermogravimetric analysis is a thermal analysis method in which the changes of the physical and chemical properties of the materials are measured as a function of the temperature. TGA can yield information on the physical phenomena, such as vaporization or combustion.
Similarly, one can obtain information on chemical phenomena such as dehydration or decomposition. In differential thermal analysis (DTA), the material under study and an inert reference material are exposed to identical thermal cycles. During the analysis, the difference in temperature between the sample and the reference material is recorded. These differences in temperatures monitored versus time relative to the inert reference material provide information on the exothermic or endothermic thermal phenomena undergone by the sample. By integration of the heat flow curve, DTA analysis yields the so-called endothermic enthalpy values when there is energy absorption, or so-called exothermic enthalpy values when energy is released in the form of heat. The endothermic character is connected with a change in the state of the compound (for example, vaporization), while the exothermic character is induced by decomposition reactions or intra- and intermolecular chemical reactions.
The analysis conditions are the following: • test specimen: 50 mg • open crucible under air flow: 100 mL/min • heating ramp: 10° C./min • temperature range: 25 at 350° C. (temperature conditions representative of normal use and of misuse of an electronic cigarette). Between analyses, the apparatus is cleaned by heating at 600° C. under air flow, in order to eliminate any trace of unvaporized residue deposited on the crucible, the arms of the scale, or the walls of the furnace.

SMILES | Kinematic viscosity at 20° C. [1] | DTA Transformation temperature (exothermic peak, reaction and/or decomposition) ([2]; air flow, 10° C./min) | DTA Vaporization temperature (endothermic peak) ([2]; air flow, 10° C./min) | DTA residue unvaporized at 250° C. ([2]; air flow, 10° C./min) | DTA Vaporization temperature (endothermic peak) ([2]; air flow, 10° C./min, listed as propylene glycol) | evaporation temperature lower than that of nicotine ([2]; difference to nicotine)
OCCCO [1,3-propanediol] | 52.6 mPa · s | without any thermal decomposition | 189 °C | – | – | –
OCC(O)CO [Glycerol, glycerol] | – | – | 260 °C | 27.3% | – | –
CC(O)CO (stereo not drawn) [Propylene glycol, propylene glycol] | – | without any thermal decomposition | 174 °C | – | 170 °C | 16 °C
